Data: paper PMC13233820, “Recruitment of Mre11 to recombination sites during meiosis” (Nature Communications, 2026)

Tests used:
[1] = test system: MMS-induced Mre11^myc foci in vegetatively growing yeast; test: Immunofluorescence of MMS-induced Mre11myc foci, vegetative yeast nuclear spreads; assay type: cell-based, Saccharomyces cerevisiae
Method: (§1) Following standard protocols, strains were patched on YPG plates, mated and streaked on YPD plates, and selected diploid colonies grown in liquid YPD at 30 °C, 250 rpm, overnight. For meiotic synchronization, diploid cultures grown overnight in YPD were transferred to YPA (1% yeast extract, 2% peptone, 1% potassium acetate) at OD600 0.2 and grown for 12–14 h at 30 °C, 250 rpm. Once the cultures reached OD600 between 1.2–1.6, cells were washed once with prewarmed sterile water and immediately transferred to sporulation medium supplemented with amino acids (320 µL amino acid complementation media for 100 mL of sporulation media (SPM)) and were kept shaking at 30 °C, 250 rpm during the entire meiotic time-course. For MMS and CPT (Sigma) sensitivity assays, serial dilutions of overnight cultures were spotted on freshly prepared YPD-MMS or YPD-CPT plates containing the indicated percentage of MMS or CPT, respectively. Plates were grown for two days at 30 °C. For immunofluorescence of vegetatively growing cells, overnight cultures were refreshed by diluting to OD600 0.2 and grown for 3-4 hours to reach OD600 1.2–1.4 before subjecting to MMS or MMS followed by 5% 1,6-hexanediol treatment. For 5% 1,6-hexanediol treatment, cells were first converted to spheroplasts and then treated with 5% 1,6-hexanediol for 4-5 min. Spheroplasts were then immediately washed, lysed, and fixed using the protocol described below.
Meiotic cultures were harvested 4 h after transfer to SPM, washed with sterile cold water, and resuspended in 1 M sorbitol, 1 × PBS (pH 7), 10 mM DTT, 0.5 mg/ml zymolyase 20 T, and incubated for 30 mins at 30 °C with gentle shaking. […]
(§2) Slides were blocked with 90% FBS, 1 × PBS for 1 h at room temperature in a humid chamber and then incubated with primary antibody (mouse mAb anti-myc, 1:200 (2276S, Cell Signaling Technology), rabbit anti-phospho H2A-S129, 1:200 (ab15083, abcam)) diluted in 3% BSA, 1 × PBS in a humid chamber for 2 h at 37 °C or overnight at 4 °C. […] Images were captured on a Zeiss Axio Observer with a 100 ×/1.4 NA oil immersion objective and were analyzed in ImageJ.

MRX condensates = assay type: biochemical, Saccharomyces cerevisiae; conditions: 5% 1,6-hexanediol, ten-minute treatment
Method: Experiments were performed without PEG. b, d Effect of DNase I, in the absence of PEG, on (b) Mre11 (n = 9 (no treatment) and 11 (DNase I)) and (d) MRX (n = 9 (no treatment) and 11 (DNase I)) condensates. Condensates were pre-assembled for 20 min with 5.7 nM pUC19 prior to challenge. Quantification represents total foci intensity (green) in a field of view and total number of foci per 1000 µm^2 (magenta). Foci intensity is normalized to the mean intensity of samples with DNA for (a, c) and untreated samples for (b, d). Error bars represent mean ± SD from the indicated (n) fields of view. e, f Effect of the presence of 5% PEG-3350 on (e) Mre11 (n = 12) and (f) MRX (n = 11) condensate formation. Quantification represents total foci intensity (green) in a field of view (normalized to the mean of + PEG images) and total number of foci per 1000 µm^2 (magenta). Error bars represent mean ± SD from the indicated (n) fields of view. g–j Effect of challenge with 5% 1,6-hexanediol and 0.5 M NaCl on (g, h) Mre11 and (i, j) MRX condensates. Condensates were assembled for 20 min prior to challenge and incubated for 15 min and 10 min, respectively, after challenge. […]
(§3) Proteins were diluted to a 10 × stock of their appropriate working concentrations in their respective storage buffers. […] Images were analyzed with ImageJ using a custom-made script. […] Data were analyzed using Graphpad Prism 10.4.0.

Mre11 condensates = assay type: biochemical, Saccharomyces cerevisiae; conditions: 5% 1,6-hexanediol, ten-minute treatment
Method: Experiments were performed without PEG. b, d Effect of DNase I, in the absence of PEG, on (b) Mre11 (n = 9 (no treatment) and 11 (DNase I)) and (d) MRX (n = 9 (no treatment) and 11 (DNase I)) condensates. Condensates were pre-assembled for 20 min with 5.7 nM pUC19 prior to challenge. Quantification represents total foci intensity (green) in a field of view and total number of foci per 1000 µm^2 (magenta). Foci intensity is normalized to the mean intensity of samples with DNA for (a, c) and untreated samples for (b, d). Error bars represent mean ± SD from the indicated (n) fields of view. e, f Effect of the presence of 5% PEG-3350 on (e) Mre11 (n = 12) and (f) MRX (n = 11) condensate formation. Quantification represents total foci intensity (green) in a field of view (normalized to the mean of + PEG images) and total number of foci per 1000 µm^2 (magenta). Error bars represent mean ± SD from the indicated (n) fields of view. g–j Effect of challenge with 5% 1,6-hexanediol and 0.5 M NaCl on (g, h) Mre11 and (i, j) MRX condensates. […] In the control reaction, an equivalent volume (1/20) of water was added instead of hexanediol. […]
as §3

meiotic Mre11^myc foci = test: Immunofluorescence of meiotic Mre11myc foci, yeast nuclear spreads; assay type: cell-based, Saccharomyces cerevisiae; conditions: brief exposure to 1,6-hexanediol, prophase I spreads
Method: as §1, with “Plates were grown for two days at 30 °C. For immunofluorescence of vegetatively growing cells, overnight cultures were refreshed by diluting to OD600 0.2 and grown for 3-4 hours to reach OD600 1.2–1.4 before subjecting to MMS or MMS followed by 5% 1,6-hexanediol treatment. For 5% 1,6-hexanediol treatment, cells were first converted to spheroplasts and then treated with 5% 1,6-hexanediol for 4-5 min. Spheroplasts were then immediately washed, lysed, and fixed using the protocol described below.” left out
as §2

Mer2 coiled-coil = test: ITC Mre11-C49 / Mer2 coiled-coil; assay type: binding, Saccharomyces cerevisiae; conditions: Mre11-C49 titrated into Mer2 coiled-coil; peer review file
Mer2 = test: Yeast two-hybrid; assay type: binding, Saccharomyces cerevisiae; conditions: SC-Leu-Ura-His + 25 mM 3-AT
Method: Bait and prey plasmids were co-transformed into yWL365 using the standard ‘LiAc’-based transformation and plated on SC-Leu-Ura selective media. At least four independent transformants were tested for Mer2-Mre11 interaction by spotting a dilution series on SC-Leu- Ura-His + 25 mM 3-AT (3-amino-1,2,4-triazole) and growing for 4-5 days at 30 °C.

HisSUMO-Mer2 (wild type) = test: Co-expression pull-down assay (NiNTA, anti-MBP immunoblot); assay type: binding, Saccharomyces cerevisiae; conditions: co-expressed in E. coli
Method: Wild-type and mutant MBP-tagged Mre11-C49 and HisSUMO-tagged Mer2 were co-expressed in 50 mL of E. coli BL21 cultures and purified by affinity chromatography on Ni-NTA resin following a procedure similar to that described above. Briefly, cells were lysed by sonication and centrifuged at maximum speed for 30 mins at 4 °C on a table-top centrifuge. A small fraction of the supernatant was collected as ‘Input’ and the remainder was incubated with 120 µL Ni-NTA resin, pre-equilibrated with wash buffer (25 mM HEPES pH 7.5, 20 mM imidazole, 0.1 mM DTT, 0.1 mM PMSF, 10% glycerol), for 1 hour on a rotating wheel at 4 °C. The resin was washed twice with 2 ml in batch and five times with 2 ml on column before eluting with 250 µL of 500 mM imidazole in wash buffer. Input and elution fractions were separated by SDS-PAGE followed by immunoblotting with primary murine anti-MBP monoclonal antibody at 1:10,000 dilution (E8032S, NEB) and secondary goat anti-mouse IgG-HRP conjugated at 1:10,000 dilution (AP308P, Chemicon).

Mer2 condensates = test: Colocalization of fluorescently-labeled Mer2 and Mre11 condensates; assay type: binding, Saccharomyces cerevisiae; conditions: 800 nM mScarlet-Mre11-C49 with 200 nM eGFP-Mer2, 30 min
Method: Fig. 4 Mer2 recruits Mre11 during meiosis. a Effect of 1,6-hexanediol treatment on meiotic Mre11^myc foci visualized by immunofluorescence analysis of yeast nuclear spreads 4 hours after transfer to SPM. […] At least 22 tetrads were dissected for each strain (n ≥ 88 spores). e Quantification of sub-population of cells showing discrete Mre11 foci and aggregated Mre11 foci in indicated strains. Images used for analysis were from the same experiments in (b) and (d). f Colocalization of fluorescently-labeled Mer2 with wild-type or truncated Mre11. […] The number of images analyzed for each sample were WT (n = 11), Mre11^Δ10-270 (n = 13), Mre11^Δ290-472 (n = 15), Mre11^ΔIDR (n = 10), Mre11^ΔC49 (n = 13). Error bars represent mean ± SD from the indicated (n) fields of view. p-values compared to Mre11-WT are: Mre11^Δ10-270 (0.006), Mre11^Δ290-472 (0.0003), Mre11^ΔIDR (<0.0001), Mre11^ΔC49 (<0.0001). g Colocalization of fluorescently-labeled Mre11-C49 and Mer2. Condensates were assembled by mixing 800 nM of ^mScarletMre11-C49 and 200 nM of ^eGFPMer2 for 30 min prior to imaging. […]
Proteins were diluted to a 10 × stock of their appropriate working concentrations in their respective storage buffers. […] Images were analyzed with ImageJ using a custom-made script. […] Masked foci were counted, and the intensity inside the focus mask was integrated. […] Data were analyzed using Graphpad Prism 10.4.0.

Molecule | Effect on MMS-induced Mre11 foci (in words) ([1]; 5% 1,6-hexanediol, 4-5 min) | Percentage of aggregates ([1]; MMS + 5% 1,6-hexanediol 4-5 min) | Effect on MRX foci intensity (in words) (MRX condensates) | Effect on Mre11 foci intensity (in words) (Mre11 condensates) | Effect on meiotic Mre11 foci (in words) (meiotic Mre11^myc foci) | ITC result (Mer2 coiled-coil) | Yeast two-hybrid interaction with Mer2 (in words) (Mer2) | Interaction with Mer2 in pulldown (in words) (HisSUMO-Mer2 (wild type)) | Localization around Mer2 condensates (in words) (Mer2 condensates)
OCCCCCCO [1,6-hexanediol] | readily dissolved MMS-induced foci | 100 | strong reduction in foci intensity | strong reduction in foci intensity | disassembles these foci | – | – | – | –
SYGLLNGRKTKTKTRSAASTKTASRRGKGRASRTPKTDILGSLLAKKRK [Mre11-C49, Mre11 C-terminal residues 644–692] | – | – | – | – | – | inconclusive | not sufficient for Mer2 binding | directly binds Mer2 | forms a halo-like structure around Mer2 condensates
